# According to the supplement of paper PMC6045584:
# Compound: C=CCNC1=C2C[C@@H](C)C[C@H](OC)[C@H](O)[C@@H](C)/C=C(\C)[C@H](OC(N)=O)[C@@H](OC)/C=C\C=C(/C)C(=O)NC(=CC1=O)C2=O [17-AAG]
# Assay: area under dose-response curve of surviving fraction (unscaled, Aref=0) (surviving fraction x log10(nM)); higher = more resistant
# Conditions: exposure time: 5 days; dose range 0.5-1000 nM
# Procedure, shortened: (§1)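 Tumour cell lines in 384-well plates were exposed to eight inhibitor concentrations, from 0.5 to 1000 nM, for five days, and viability was read by CellTiter-Glo luminescence in three screens per line. Signals were normalised to DMSO-only wells, and 3-parameter logistic regression in the drc R package fitted dose-response survival curves to the surviving fractions. Area under the curve is given as the unscaled activity area. That area is taken over log10 dose with Aref = 0.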
row,Test System,area under dose-response curve
1,HCC1806 BREAST,0.894
2,HU09 BONE,1.08
3,HOSMNG BONE,2.42
4,CASKI CERVIX,1.32
5,MDAMB231 BREAST,2.14
6,CAL51 BREAST,1.92
7,MDAMB436 BREAST,1.77
8,HSSYII SYNOVIAL,2.27
9,CAL120 BREAST,1.76
10,MCF7 BREAST,1.92
11,MFM223 BREAST,1.07
12,PCI30 HEADNECK,1.97
13,HOS BONE,2.31
14,JIMT1 BREAST,1.58
15,LM7 BONE,1.46
16,SUM149 BREAST,1.29
17,MDAMB361 BREAST,1.34

row,Test System,area under dose-response curve
1,SAOS2 BONE,1.66
2,HCC1395 BREAST,3.19
3,HCC1954 BREAST,0.46
4,HELA CERVIX,2.37
5,CAL72 BONE,2.63
6,MDAMB134 BREAST,1.91
7,SKBR3 BREAST,1.25
8,MHM BONE,2.77
9,SYO1 SYNOVIAL,1.74
10,KPD BONE,1.75
11,DU4475 BREAST,1.26
12,COLO320DM LARGE INTESTINE,2.98
13,T47D BREAST,2.74
14,H23 LUNG,1.66
15,SCC90 HEADNECK,2.31
16,MG63 BONE,2.62
17,A549 LUNG,1.64

# Compound: CCN(CC)CCCCNc1ncc2cc(-c3cc(OC)cc(OC)c3)c(NC(=O)NC(C)(C)C)nc2n1
# Assay: as above
# Conditions: exposure time: 5 days; dose range 0.5-1000 nM
# Procedure, shortened: as §1
row,Test System,area under dose-response curve
1,HCC1806 BREAST,3.58
2,HU09 BONE,3.06
3,HOSMNG BONE,3.33
4,CASKI CERVIX,3.09
5,MDAMB231 BREAST,3.28
6,CAL51 BREAST,2.86
7,MDAMB436 BREAST,2.96
8,HSSYII SYNOVIAL,2.02
9,CAL120 BREAST,2.73
10,MCF7 BREAST,2.89
11,MFM223 BREAST,2
12,PCI30 HEADNECK,3.28
13,JIMT1 BREAST,3.25
14,LM7 BONE,3.22
15,MDAMB361 BREAST,2.94
16,SAOS2 BONE,3.79
17,HCC1395 BREAST,2.85

row,Test System,area under dose-response curve
1,HCC1954 BREAST,3.28
2,HELA CERVIX,3.33
3,CAL72 BONE,2.46
4,MDAMB134 BREAST,2.92
5,C33A CERVIX,2.88
6,SKBR3 BREAST,3.1
7,MHM BONE,3.05
8,SYO1 SYNOVIAL,2.51
9,KPD BONE,3.24
10,DU4475 BREAST,2.52
11,COLO320DM LARGE INTESTINE,3.53
12,T47D BREAST,3.36
13,H23 LUNG,3.28
14,SCC90 HEADNECK,2.96
15,MG63 BONE,2.88
16,A549 LUNG,3.22

# Compound: CC[C@@H](C(=O)[C@@H](C)[C@@H](O)[C@H](C)[C@@H]1O[C@@H]([C@@H](CC)C(=O)O)CC[C@@H]1C)[C@H]1O[C@]2(C=C[C@@H](O)[C@]3(CC[C@@](C)([C@H]4CC[C@](O)(CC)[C@H](C)O4)O3)O2)[C@H](C)C[C@@H]1C [SALINOMYCIN]
# Assay: as above
# Conditions: exposure time: 5 days; dose range 0.5-1000 nM
# Procedure, shortened: as §1
row,Test System,area under dose-response curve
1,HCC1806 BREAST,2.77
2,HU09 BONE,2.91
3,HOSMNG BONE,3.21
4,CASKI CERVIX,2.37
5,MDAMB231 BREAST,2.97
6,CAL51 BREAST,3.01
7,MDAMB436 BREAST,1.74
8,HSSYII SYNOVIAL,2.22
9,CAL120 BREAST,2.03
10,MCF7 BREAST,2.78
11,MFM223 BREAST,2.35
12,PCI30 HEADNECK,2.49
13,HOS BONE,2.44
14,JIMT1 BREAST,2.96
15,LM7 BONE,3.08
16,SUM149 BREAST,2.62
17,MDAMB361 BREAST,2.72

row,Test System,area under dose-response curve
1,SAOS2 BONE,3.15
2,HCC1954 BREAST,2.46
3,HELA CERVIX,3.17
4,CAL72 BONE,3.12
5,MDAMB134 BREAST,3.52
6,C33A CERVIX,2.96
7,SKBR3 BREAST,2.84
8,MHM BONE,3.24
9,SYO1 SYNOVIAL,2.04
10,KPD BONE,2.62
11,DU4475 BREAST,2.43
12,COLO320DM LARGE INTESTINE,2.89
13,T47D BREAST,3.3
14,SCC90 HEADNECK,2.84
15,MG63 BONE,2.67
16,A549 LUNG,3.11

# Compound: CN(C)CC[C@H](CSc1ccccc1)Nc1ccc(S(=O)(=O)NC(=O)c2ccc(N3CCN(Cc4ccccc4-c4ccc(Cl)cc4)CC3)cc2)cc1[N+](=O)[O-] [ABT-737]
# Assay: as above
# Conditions: exposure time: 5 days; dose range 0.5-1000 nM
# Procedure, shortened: as §1
row,Test System,area under dose-response curve
1,HCC1806 BREAST,3.72
2,HU09 BONE,3.04
3,HOSMNG BONE,3.05
4,CASKI CERVIX,3.24
5,MDAMB231 BREAST,3.28
6,CAL51 BREAST,3.4
7,MDAMB436 BREAST,3.13
8,HSSYII SYNOVIAL,2.95
9,CAL120 BREAST,3.33
10,MCF7 BREAST,3.27
11,MFM223 BREAST,4.23
12,PCI30 HEADNECK,3.56
13,HOS BONE,3.45
14,JIMT1 BREAST,3.44
15,LM7 BONE,3.48
16,SUM149 BREAST,3.39
17,MDAMB361 BREAST,2.84
18,SAOS2 BONE,3.87

row,Test System,area under dose-response curve
1,HCC1395 BREAST,3.99
2,HCC1954 BREAST,3.03
3,HELA CERVIX,3.64
4,CAL72 BONE,3.52
5,MDAMB134 BREAST,3.13
6,C33A CERVIX,3.38
7,SKBR3 BREAST,3.52
8,MHM BONE,3.61
9,SYO1 SYNOVIAL,3
10,KPD BONE,3.2
11,DU4475 BREAST,2.54
12,COLO320DM LARGE INTESTINE,3.69
13,T47D BREAST,3.61
14,H23 LUNG,3.5
15,SCC90 HEADNECK,3.56
16,MG63 BONE,3.59
17,A549 LUNG,3.54

# Compound: CN1CC[C@H](c2c(O)cc(O)c3c(=O)cc(-c4ccccc4Cl)oc23)[C@H](O)C1 [FLAVOPIRIDOL]
# Assay: as above
# Conditions: exposure time: 5 days; dose range 0.5-1000 nM
# Procedure, shortened: as §1
row,Test System,area under dose-response curve
1,HCC1806 BREAST,2.06
2,HU09 BONE,2.06
3,HOSMNG BONE,2.35
4,CASKI CERVIX,1.76
5,MDAMB231 BREAST,2.26
6,CAL51 BREAST,1.92
7,MDAMB436 BREAST,2.13
8,HSSYII SYNOVIAL,2.06
9,CAL120 BREAST,2.14
10,MCF7 BREAST,2.18
11,MFM223 BREAST,2.3
12,PCI30 HEADNECK,2.11
13,HOS BONE,2.29
14,JIMT1 BREAST,2.19
15,LM7 BONE,2.3
16,SUM149 BREAST,2.09
17,MDAMB361 BREAST,2.59

row,Test System,area under dose-response curve
1,SAOS2 BONE,2.19
2,HCC1954 BREAST,1.99
3,HELA CERVIX,2.54
4,CAL72 BONE,2.13
5,MDAMB134 BREAST,2.96
6,C33A CERVIX,2.27
7,SKBR3 BREAST,2.07
8,MHM BONE,2.77
9,SYO1 SYNOVIAL,1.9
10,KPD BONE,2.05
11,DU4475 BREAST,1.69
12,COLO320DM LARGE INTESTINE,2.06
13,T47D BREAST,2.51
14,H23 LUNG,2.33
15,SCC90 HEADNECK,2.25
16,MG63 BONE,2.39
17,A549 LUNG,2.34

# Compound: COc1cc2c(cc1O)CC[C@@H]1[C@@H]2CC[C@]2(C)[C@@H](O)CC[C@@H]12 [2-METHOXYESTRADIOL]
# Assay: as above
# Conditions: exposure time: 5 days; dose range 0.5-1000 nM
# Procedure, shortened: as §1
row,Test System,area under dose-response curve
1,HCC1806 BREAST,3.46
2,HU09 BONE,3.01
3,HOSMNG BONE,3.07
4,CASKI CERVIX,3.06
5,MDAMB231 BREAST,3
6,CAL51 BREAST,2.99
7,MDAMB436 BREAST,3.01
8,HSSYII SYNOVIAL,2.57
9,CAL120 BREAST,3
10,MCF7 BREAST,2.89
11,MFM223 BREAST,3.08
12,PCI30 HEADNECK,2.94
13,HOS BONE,3.21
14,JIMT1 BREAST,3.13
15,LM7 BONE,3.02
16,SUM149 BREAST,2.9
17,MDAMB361 BREAST,2.61

row,Test System,area under dose-response curve
1,HCC1395 BREAST,3.84
2,HCC1954 BREAST,2.85
3,HELA CERVIX,3.11
4,CAL72 BONE,3.18
5,MDAMB134 BREAST,2.73
6,C33A CERVIX,2.91
7,SKBR3 BREAST,3.2
8,MHM BONE,3.26
9,SYO1 SYNOVIAL,2.75
10,KPD BONE,3.16
11,DU4475 BREAST,2.52
12,COLO320DM LARGE INTESTINE,2.88
13,T47D BREAST,3.15
14,H23 LUNG,3.11
15,SCC90 HEADNECK,2.68
16,MG63 BONE,3.27
17,A549 LUNG,3.25

# Compound: COc1ccc(C2=N[C@@H](c3ccc(Cl)cc3)[C@@H](c3ccc(Cl)cc3)N2C(=O)N2CCNC(=O)C2)c(OC(C)C)c1 [NUTLIN3]
# Assay: as above
# Conditions: exposure time: 5 days; dose range 0.5-1000 nM
# Procedure, shortened: as §1
row,Test System,area under dose-response curve
1,HCC1806 BREAST,3.55
2,HU09 BONE,3.4
3,HOSMNG BONE,3.48
4,CASKI CERVIX,3.23
5,MDAMB231 BREAST,3.31
6,CAL51 BREAST,3.17
7,MDAMB436 BREAST,2.99
8,HSSYII SYNOVIAL,2.98
9,CAL120 BREAST,3.14
10,MCF7 BREAST,2.87
11,MFM223 BREAST,3.57
12,PCI30 HEADNECK,3.44
13,HOS BONE,3.43
14,JIMT1 BREAST,3.38
15,LM7 BONE,3.39
16,SUM149 BREAST,3.63
17,MDAMB361 BREAST,2.83
18,SAOS2 BONE,3.66
19,HCC1395 BREAST,3.79
20,HCC1954 BREAST,3.64
